The source of these data is ChEMBL document CHEMBL1141370, “Biologically active triterpenoid saponins from Ardisia japonica” (J Nat Prod, 2007).

What all share (type): cell-based
For one experiment, the system named is HL-60. In words: Cytotoxicity against human HL60 cell line by MTT assay.
Experiment [1] is described as follows: Cytotoxicity against human KATO3 cell line by MTT assay.
Another experiment relates to A549. In words: Cytotoxicity against human A549 cell line by MTT assay.

Consider `CC1(C)[C@@H](O[C@@H]2OC[C@H](O[C@@H]3O[C@H](CO)[C@@H](O)[C@H](O)[C@H]3O)[C@H](O)[C@H]2O[C@@H]2O[C@H](CO)[C@@H](O)[C@H](O)[C@H]2O)CC[C@]2(C)[C@H]3CC[C@]45OC[C@@]6(CC[C@](C)(CO)C[C@H]64)[C@H](O)C[C@@]5(C)[C@]3(C)CC[C@@H]12` [ARDISIANOSIDE E], for which the IC50 with HL-60 turned out to be 3.4 µM; in experiment [1] it was 0.4 µM; in the experiment on A549 it was 3.1 µM.
On to `C[C@@H]1O[C@@H](O[C@H]2[C@H](O[C@H]3CO[C@@H](O[C@H]4CC[C@]5(C)[C@H]6CC=C7[C@@H]8C[C@@](C)(CO)CC[C@]8(CO)[C@@H]8O[C@@H]8[C@@]7(C)[C@]6(C)CC[C@H]5C4(C)C)[C@H](O[C@@H]4O[C@H](CO)[C@@H](O)[C@H](O)[C@H]4O)[C@H]3O)O[C@H](CO)[C@@H](O)[C@@H]2O)[C@H](O)[C@H](O)[C@H]1O` [ARDISIANOSIDE K], for which the IC50 (in the experiment on HL-60; in experiment [1]; with A549) was > 100 µM each time.
Take `COc1cc([C@@H]2c3cc4c(cc3[C@@H](O[C@@H]3O[C@@H]5CO[C@@H](C)O[C@H]5[C@H](O)[C@H]3O)[C@H]3COC(=O)[C@H]23)OCO4)cc(OC)c1O` [ETOPOSIDE]: the 50% inhibitory concentration (IC50) with HL-60 came to 0.3 µM; in experiment [1], 0.1 µM; with A549, 20.9 µM.
For `CC1(C)[C@@H](O[C@@H]2OC[C@H](O[C@@H]3O[C@H](CO)[C@@H](O)[C@H](O)[C@H]3O[C@@H]3OC[C@@H](O)[C@H](O)[C@H]3O)[C@H](O)[C@H]2O)CC[C@]2(C)[C@H]3CC[C@]45OC[C@@]6(CC[C@](C)(C=O)C[C@H]64)[C@H](O)C[C@@]5(C)[C@]3(C)CC[C@@H]12` [PRIMULANIN] the same measures were 24.7 µM, 3.3 µM and 27.7 µM.
Regarding `C[C@@H]1O[C@@H](O[C@H]2[C@H](O[C@H]3CO[C@@H](O[C@H]4CC[C@]5(C)[C@H]6CC[C@]78OC[C@@]9(CC[C@](C)(CO)C[C@H]97)[C@H](O)C[C@@]8(C)[C@]6(C)CC[C@H]5C4(C)C)[C@H](O[C@@H]4O[C@H](CO)[C@@H](O)[C@H](O)[C@H]4O)[C@H]3O)O[C@H](CO)[C@@H](O)[C@@H]2O)[C@H](O)[C@H](O)[C@H]1O` [ARDISICRENOSIDE A], the values for the IC50 (in the experiment on HL-60; in experiment [1]; in the experiment on A549) were > 100 µM, 14.5 µM and > 100 µM, respectively.
`CC1(C)CC[C@]23CO[C@@]4(CC[C@@H]5[C@@]6(C)CC[C@H](O[C@@H]7OC[C@H](O[C@@H]8O[C@H](CO)[C@@H](O)[C@H](O[C@@H]9O[C@H](CO)[C@@H](O[C@@H]%10O[C@H](CO)[C@@H](O)[C@H](O)[C@H]%10O)[C@H](O[C@@H]%10O[C@H](CO)[C@@H](O)[C@H](O)[C@H]%10O)[C@H]9O)[C@H]8O[C@@H]8OC[C@@H](O)[C@H](O)[C@H]8O)[C@H](O)[C@H]7O[C@@H]7O[C@H](CO)[C@@H](O)[C@H](O)[C@H]7O)C(C)(C)[C@@H]6CC[C@@]5(C)[C@]4(C)C[C@H]2O)[C@@H]3C1` [ARDISIANOSIDES A]: the IC50 in the experiment on HL-60 was determined as 2.7 µM; in experiment [1] it was 0.4 µM; in the experiment on A549, 6 µM.
For `CC1(C)CC[C@]23CO[C@@]4(CC[C@@H]5[C@@]6(C)CC[C@H](O[C@@H]7OC[C@H](O[C@@H]8O[C@H](CO)[C@@H](O)[C@H](O)[C@H]8O[C@@H]8OC[C@@H](O)[C@H](O)[C@H]8O)[C@H](O)[C@H]7O)C(C)(C)[C@@H]6CC[C@@]5(C)[C@]4(C)C[C@H]2O)[C@@H]3C1` [ARDISIANOSIDE D], the half-maximal inhibitory concentration (IC50) in the experiment on HL-60 came out at 3.5 µM; in experiment [1], 1.5 µM; in the experiment with A549, 24.2 µM.
With `C[C@@H]1O[C@@H](O[C@H]2[C@H](O[C@H]3CO[C@@H](O[C@H]4CC[C@]5(C)[C@H]6CC[C@]78OC[C@@]9(CC[C@](C)(C(=O)O)C[C@H]97)[C@H](O)C[C@@]8(C)[C@]6(C)CC[C@H]5C4(C)C)[C@H](O[C@@H]4O[C@H](CO)[C@@H](O)[C@H](O)[C@H]4O)[C@H]3O)O[C@H](CO)[C@@H](O)[C@@H]2O)[C@H](O)[C@H](O)[C@H]1O` [ARDISIAMAMILLOSIDE F], the IC50 (in the experiment on HL-60; in experiment [1]; with A549) was > 100 µM each time.
Turning to `C[C@@H]1O[C@@H](O[C@H]2[C@H](O[C@H]3CO[C@@H](O[C@H]4CC[C@]5(C)[C@H]6CC[C@]78OC(=O)[C@@]9(CC[C@](C)(C=O)C[C@H]97)[C@H](O)C[C@@]8(C)[C@]6(C)CC[C@H]5C4(C)C)[C@H](O[C@@H]4O[C@H](CO)[C@@H](O)[C@H](O)[C@H]4O)[C@H]3O)O[C@H](CO)[C@@H](O)[C@@H]2O)[C@H](O)[C@H](O)[C@H]1O` [ARDISIANOSIDE J], the concentration for half-maximal inhibition (IC50) came to 45.6 µM in the experiment on HL-60, 33.5 µM in experiment [1] and 32.9 µM with A549.
Turning to `CC1(C)CC[C@]23CO[C@@]4(CC[C@@H]5[C@@]6(C)CC[C@H](O[C@@H]7OC[C@H](O[C@@H]8O[C@H](CO)[C@@H](O)[C@H](O[C@@H]9O[C@H](CO)[C@@H](O)[C@H](O[C@@H]%10O[C@H](CO)[C@@H](O)[C@H](O)[C@H]%10O)[C@H]9O)[C@H]8O[C@@H]8OC[C@@H](O)[C@H](O)[C@H]8O)[C@H](O)[C@H]7O[C@@H]7O[C@H](CO)[C@@H](O)[C@H](O)[C@H]7O)C(C)(C)[C@@H]6CC[C@@]5(C)[C@]4(C)C[C@H]2O)[C@@H]3C1` [ARDISIANOSIDE B], the results for the IC50 (with HL-60; in experiment [1]; in the experiment with A549) were 2.4 µM, 0.3 µM and 3.1 µM, respectively.
For `C[C@@H]1O[C@@H](O[C@H]2[C@H](O[C@H]3CO[C@@H](O[C@H]4CC[C@]5(C)[C@H]6CC[C@]78OC(=O)[C@@]9(CC[C@](C)(CO)C[C@H]97)[C@H](O)C[C@@]8(C)[C@]6(C)CC[C@H]5C4(C)C)[C@H](O[C@@H]4O[C@H](CO)[C@@H](O)[C@H](O)[C@H]4O)[C@H]3O)O[C@H](CO)[C@@H](O)[C@@H]2O)[C@H](O)[C@H](O)[C@H]1O` [ARDISIANOSIDE I], the IC50 (with HL-60; in experiment [1]; with A549) was > 100 µM in each case.
Turning to `C[C@@H]1O[C@@H](O[C@H]2[C@H](O[C@H]3CO[C@@H](O[C@H]4CC[C@]5(C)[C@H]6CC[C@]78OC[C@@]9(CCC(C)(C)C[C@H]97)[C@H](O)C[C@@]8(C)[C@]6(C)CC[C@H]5C4(C)C)[C@H](O[C@@H]4O[C@H](CO)[C@@H](O)[C@H](O)[C@H]4O)[C@H]3O)O[C@H](CO)[C@@H](O)[C@@H]2O)[C@H](O)[C@H](O)[C@H]1O`, the IC50 turned out to be 1.9 µM with HL-60, 0.4 µM in experiment [1] and 3.7 µM in the experiment on A549.
For `C[C@@H]1O[C@@H](O[C@H]2[C@H](O[C@H]3CO[C@@H](O[C@H]4CC[C@]5(C)[C@H]6CC[C@]78OC[C@@]9(CC[C@](C)(C=O)C[C@H]97)[C@H](O)C[C@@]8(C)[C@]6(C)CC[C@H]5C4(C)C)[C@H](O)[C@H]3O)O[C@H](CO)[C@@H](O)[C@@H]2O)[C@H](O)[C@H](O)[C@H]1O` [CYCLAMIRETIN A] the same measures were 18.1 µM, 1.7 µM and 29.2 µM.
The corresponding values for `CC1(C)[C@@H](O[C@@H]2OC[C@H](O[C@@H]3O[C@H](CO)[C@@H](O)[C@H](O[C@@H]4O[C@H](CO)[C@@H](O)[C@H](O)[C@H]4O)[C@H]3O[C@@H]3OC[C@@H](O)[C@H](O)[C@H]3O)[C@H](O)[C@H]2O[C@@H]2O[C@H](CO)[C@@H](O)[C@H](O)[C@H]2O)CC[C@]2(C)[C@H]3CC[C@]45OC[C@@]6(CC[C@](C)(C=O)C[C@H]64)[C@H](O)C[C@@]5(C)[C@]3(C)CC[C@@H]12` [CYCLAMIN] are 3 µM, 0.3 µM and 3.3 µM.
The corresponding values for `CC1(C)[C@@H](O[C@@H]2OC[C@H](O[C@@H]3O[C@H](CO)[C@@H](O)[C@H](O[C@@H]4O[C@H](CO)[C@@H](O)[C@H](O)[C@H]4O)[C@H]3O[C@@H]3OC[C@@H](O)[C@H](O)[C@H]3O)[C@H](O)[C@H]2O[C@@H]2O[C@H](CO)[C@@H](O)[C@H](O)[C@H]2O)CC[C@]2(C)[C@H]3CC[C@]45OC[C@@]6(CC[C@](C)(CO)C[C@H]64)[C@H](O)C[C@@]5(C)[C@]3(C)CC[C@@H]12` [ARDISIANOSIDE F] are > 100 µM, 38.3 µM and 36.2 µM.
Turning to `C[C@@H]1O[C@@H](O[C@H]2[C@H](O[C@H]3CO[C@@H](O[C@H]4CC[C@]5(C)[C@H]6CC[C@]78OC[C@@]9(CC[C@](C)(O)C[C@H]97)[C@H](O)C[C@@]8(C)[C@]6(C)CC[C@H]5C4(C)C)[C@H](O[C@@H]4O[C@H](CO)[C@@H](O)[C@H](O)[C@H]4O)[C@H]3O)O[C@H](CO)[C@@H](O)[C@@H]2O)[C@H](O)[C@H](O)[C@H]1O` [ARDISIANOSIDE G], the concentration for half-maximal inhibition (IC50) (in the experiment on HL-60; in experiment [1]; with A549) was > 100 µM in each case.
As for `C[C@@H]1O[C@@H](O[C@H]2[C@H](O[C@H]3CO[C@@H](O[C@H]4CC[C@]5(C)[C@H]6CC[C@]78OC[C@@]9(CC[C@](C)(C=O)C[C@H]97)C(=O)C[C@@]8(C)[C@]6(C)CC[C@H]5C4(C)C)[C@H](O)[C@H]3O)O[C@H](CO)[C@@H](O)[C@@H]2O)[C@H](O)[C@H](O)[C@H]1O` [ARDISIAMAMILLOSIDE H], the IC50 turned out to be 30.8 µM in the experiment with HL-60, 21.5 µM in experiment [1] and 37.2 µM in the experiment with A549.
For `C[C@@H]1O[C@@H](O[C@H]2[C@H](O[C@H]3CO[C@@H](O[C@H]4CC[C@]5(C)[C@H]6CC[C@]78OC[C@@]9(CCC(C)(C)C[C@H]97)[C@H](O)C[C@@]8(C)[C@]6(C)CC[C@H]5C4(C)C)[C@H](O)[C@H]3O)O[C@H](CO)[C@@H](O)[C@@H]2O)[C@H](O)[C@H](O)[C@H]1O` [ARDISIANOSIDE C] the same measures were 2.7 µM, 1.3 µM and 3.2 µM.
With `C[C@@H]1O[C@@H](O[C@H]2[C@H](O[C@H]3CO[C@@H](O[C@H]4CC[C@]5(C)[C@H]6CC[C@]78OC[C@@]9(CC[C@](C)(C=O)C[C@H]97)[C@H](O)C[C@@]8(C)[C@]6(C)CC[C@H]5C4(C)C)[C@H](O[C@@H]4O[C@H](CO)[C@@H](O)[C@H](O)[C@H]4O)[C@H]3O)O[C@H](CO)[C@@H](O)[C@@H]2O)[C@H](O)[C@H](O)[C@H]1O` [ARDISIACRISPIN B], the IC50 was found to be 3.2 µM in the experiment with HL-60, 1.2 µM in experiment [1] and 3.6 µM in the experiment on A549.
